# According to publication PMC8011197, “A polo-like kinase modulates cytokinesis and flagella biogenesis in Giardia lamblia” (Parasites & Vectors, 2021):
# Experiments:
# Type in all cases: cell-based
# [1] = tested on: Giardia lamblia trophozoites; test: DNA content / cell cycle phase by flow cytometry (PI)
# Procedure: Both the GW-treated and control G. lamblia cells were analyzed for their DNA content using flow cytometry. Briefly, the harvested cells were resuspended in 50 μl TYI-S-33 culture medium and treated with 150 μl of a cell fixative (1% Triton X-100, 40 mM citric acid, 20 mM dibasic sodium phosphate, 200 mM sucrose; pH 3.0) at room temperature for 5 min. The samples were diluted with 350 μl of diluent buffer [125 mM MgCl2 in phosphate-buffered saline (PBS: 137 mM NaCl, 2.7 mM KCl, 10.1 mM Na2HPO4 and 2 mM KH2PO4, pH 7.4)] and then stored at 4 °C until use. Fixed cells were treated with 2.5 μg RNase A (Sigma-Aldrich) and 10 μg/ml propidium iodide (PI; Sigma-Aldrich) for 30 min at 37 °C. […] Along representative histograms, averages of three independent experiments were presented in bar graphs.
# Expression of GlPLK was knocked down using a morpholino, as described previously. A specific morpholino for GlPLK was designed by Gene Tools (Philomath, OR, USA) (see Table 1 for sequences). Nonspecific oligomers were used as a control morpholino (Table 1). Cells (5 × 10^6 in 0.3 ml medium) were treated with the lyophilized morpholino at a final concentration of 100 nM. After electroporation, the cells were grown for various lengths of time, ranging from 12 to 48 h, and analyzed for GlPLK inhibition by western blotting using anti-HA and anti-GlPLK antibodies. The cells at 18 h post-transfection were analyzed for their nuclear phenotypes, including the number and position of nuclei and condensation and flagella length, as described above. In addition, cells transfected with control or anti-glplk morpholino were harvested at 6 or 18 h, and then evaluated with respect to their DNA content by flow cytometry followed by analysis using FlowJo software (FlowJo Llc). […]
# These cells were then analyzed by flow cytometry to determine the ploidy of their DNA. Intracellular levels of GlPLK protein in the DMSO-treated, nocodazole-treated and nocodazole/aphidicolin-treated Giardia cells were determined by western blotting. The intracellular levels of glplk transcripts were also measured in these cells.
# [2] = tested on: Giardia lamblia trophozoites; test: Growth inhibition of Giardia trophozoites, hemocytometer count after 24 h; details: Giardia duodenalis, GW 5–15 μM, 2 × 10^4 cells/ml, read-out: IC50, inhibition of growth of G. lamblia
# Procedure: After treatment for 24 h, the number of parasites per milliliter was determined using a hemocytometer. Giardia trophozoites treated with 0.3% dimethyl sulfoxide (DMSO) were used as controls.
# [3] = tested on: Giardia lamblia trophozoites; test: Nuclear phenotype (number, position, condensation of nuclei) of Giemsa-stained cells; details: for Percentage of cells, 1N / Percentage of cells, 2N, abnormal / Percentage of cells, 2N, normal / Percentage of cells, 3N / Percentage of cells, 4N / Percentage of cells, >4N: 5 µM GW
# Procedure: For the microscopic observation of cells, the cells were attached to slides, air-dried and fixed with 100% methanol for 10 min, following which they were stained with 10% Giemsa solution for 40 min and washed with distilled water. After mounting with dibutyl phthalate xylene (Sigma-Aldrich, St. Louis, MO, USA), the slides were observed under an Axiovert 200 microscope (Carl Zeiss AG, Oberkochen, Germany). For each condition, at least 300 cells were examined to determine the number and position of the nuclei. Among cells with two nuclei in normal positions, the number of cells showing nuclei condensation was also recorded. Data are presented as the mean ± standard deviation (SD) of three independent experiments. […]
# [4] = tested on: Giardia lamblia trophozoites; test: Flagella length of Giemsa-stained cells (DIC images, Fiji/ImageJ); details: 5 µM GW
# From the text: To measure flagella length, we observed Giemsa-stained cells under an Axiovert 200 microscope and analyzed their differential interference contrast (DIC) images using Fiji, an open-source platform for biological-image analysis. Each of four types of flagella were divided into cytoplasmic and membrane-bound categories and then measured using the line Freehand Tracing 0mode in ImageJ software (http://imagej.nih.gov/ij/). […] Data are presented as the mean ± SD of three independent experiments.
# Expression of GlPLK was knocked down using a morpholino, as described previously. A specific morpholino for GlPLK was designed by Gene Tools (Philomath, OR, USA) (see Table 1 for sequences). Nonspecific oligomers were used as a control morpholino (Table 1). Cells (5 × 10^6 in 0.3 ml medium) were treated with the lyophilized morpholino at a final concentration of 100 nM. After electroporation, the cells were grown for various lengths of time, ranging from 12 to 48 h, and analyzed for GlPLK inhibition by western blotting using anti-HA and anti-GlPLK antibodies. The cells at 18 h post-transfection were analyzed for their nuclear phenotypes, including the number and position of nuclei and condensation and flagella length, as described above. In addition, cells transfected with control or anti-glplk morpholino were harvested at 6 or 18 h, and then evaluated with respect to their DNA content by flow cytometry followed by analysis using FlowJo software (FlowJo Llc). Transfection was performed at least five times, and the data presented were derived from three independent knockdown experiments.
smiles,measurement,setting,value
C[C@@]1(CO)[C@H](O)CC[C@@]2(C)[C@H]1CC[C@H]1C[C@@H]3C[C@@]12CC[C@]3(O)CO [aphidicolin],Percentage of G1/S-arrested cells after synchronization,"[1]; sequentially 100 nM nocodazole, then 6 μM aphidicolin 6 h, Giardia carrying pGlPLK.neo",86%
COC(=O)Nc1nc2ccc(C(=O)c3cccs3)cc2[nH]1 [nocodazole],Percentage of G2/M-phase cells after synchronization,"[1]; 100 nM nocodazole, Giardia carrying pGlPLK.neo, 0.01% DMSO control 78%",91%
"COc1cc2ncn(-c3cc(OCc4ccccc4C(F)(F)F)c(C(N)=O)s3)c2cc1OC [GW, GW843682X]",IC50,[2],7 µM
same,"Percentage of cells, 1N",[3]; 3 h,0.4±0.1%
same,"Percentage of cells, 2N, abnormal",[3]; 3 h,0.7±0.3%
same,"Percentage of cells, 2N, normal",[3]; 3 h,97.2±0.8%
same,"Percentage of cells, 3N",[3]; 3 h,0.2±0.1%
same,"Percentage of cells, 4N",[3]; 3 h,0.7±0.2%
same,"Percentage of cells, >4N",[3]; 3 h,0.8±0.3%
same,"Percentage of cells, 1N",[3]; 6 h,0.3±0.2%
same,"Percentage of cells, 2N, abnormal",[3]; 6 h,0.8±0.3%
same,"Percentage of cells, 2N, normal",[3]; 6 h,96.9±0.7%
same,"Percentage of cells, 3N",[3]; 6 h,0.3±0.1%
same,"Percentage of cells, 4N",[3]; 6 h,0.8±0.2%
same,"Percentage of cells, >4N",[3]; 6 h,0.9±0.4%
same,Percentage of cells with condensed nuclei,"[3]; 5 μM GW, 6 h, compared to DMSO-treated cells",significantly increased
same,"Percentage of cells, 1N",[3]; 9 h,1.2±0.1%
same,"Percentage of cells, 2N, abnormal",[3]; 9 h,1.3±0.3%
same,"Percentage of cells, 2N, normal",[3]; 9 h,91.7±0.1%
same,"Percentage of cells, 3N",[3]; 9 h,1.3±0.4%
same,"Percentage of cells, 4N",[3]; 9 h,3.3±0.4%
same,"Percentage of cells, >4N",[3]; 9 h,1.7±0.3%
same,"Percentage of cells, 1N",[3]; 12 h,1.2±0.1%
same,"Percentage of cells, 2N, abnormal",[3]; 12 h,1.4±0.6%
same,"Percentage of cells, 2N, normal",[3]; 12 h,91.0±1.4%
same,"Percentage of cells, 3N",[3]; 12 h,1.5±0.4%
same,"Percentage of cells, 4N",[3]; 12 h,3.1±0.9%
same,"Percentage of cells, >4N",[3]; 12 h,1.9±0.8%
same,"Percentage of cells, 1N",[3]; 15 h,1.1±0.2%
same,"Percentage of cells, 2N, abnormal",[3]; 15 h,1.6±0.5%
same,"Percentage of cells, 2N, normal",[3]; 15 h,86.1±1.4%
same,"Percentage of cells, 3N",[3]; 15 h,1.5±0.3%
same,"Percentage of cells, 4N",[3]; 15 h,6.7±0.5%
same,"Percentage of cells, >4N",[3]; 15 h,3.1±0.6%
same,"Percentage of cells, 1N",[3]; 18 h,0.9±0.3%
same,"Percentage of cells, 2N, abnormal",[3]; 18 h,0.9±0.4%
same,"Percentage of cells, 2N, normal",[3]; 18 h,88.5±1.2%
same,"Percentage of cells, 3N",[3]; 18 h,1.6±0.4%
same,"Percentage of cells, 4N",[3]; 18 h,5.4±0.8%
same,"Percentage of cells, >4N",[3]; 18 h,2.7±0.5%
same,"Percentage of cells, 1N",[3]; 24 h,1.2±0.3%
same,"Percentage of cells, 2N, abnormal",[3]; 24 h,1.6±0.5%
same,"Percentage of cells, 2N, normal",[3]; 24 h,85.6±0.5%
same,"Percentage of cells, 3N",[3]; 24 h,2.3±0.2%
same,"Percentage of cells, 4N",[3]; 24 h,6.1±0.5%
same,"Percentage of cells, >4N",[3]; 24 h,3.2±0.4%
same,Percentage of cells at G2/M phase,"[1]; 5 μM GW, 6 and 12 h, control 72–73%",86%
same,"Length of cytoplasmic part of posterolateral, anterior and caudal flagella",[4],None of the three flagella showed any significant change
same,Length of membrane-bound portion of posterolateral and ventral flagella,[4]; 18 h,did not induce a significant increase
same,Length of membrane-bound part of caudal flagella,"[4]; 18 h, DMSO 7.2 μm",11.1 µm
same,Length of membrane-bound part of anterior flagella,"[4]; 18 h, DMSO 9.0 μm",11.3 µm
